How the values were obtained:
[1] = tested on: colonic afferent neurons; experiment: Colonic afferent recordings, CVH mice (28 d post-TNBS); set-up: species or system mouse
Procedure: Transient colitis in mice induces hypersensitivity of colonic afferent neurons that persists after inflammation is resolved (Azpiroz F., et al., Neurogastroenterol Motil. 2007, 19(1 Suppl): 62-88). This chronic visceral hypersensitivity (CVH) may mimic post-infectious/inflammatory IBS. To determine whether proteases can further amplify CVH, mice were treated with trinitrobenzene sulphonic acid (TNBS, enema) to induce colitis. At 28 d post-TNBS, when inflammation is undetectable, mechanical stimulation of the colon induced a larger firing rate in CVH mice than in HC mice, consistent with chronic hyperexcitability (FIG. 21A-D). […] Thus, proteases can still amplify the excitability of colonic nociceptors even when they are already sensitized as a result of prior inflammation. The colon and rectum (5-6 cm) was removed from C57BL/6 mice. Afferent recordings were made from splanchnic nerves as described (Hughes, P. A. et al., Gut 2009, 58(10): 1333-134; Brierley, S. M. et al., Gastroenterology 2004, 127(1): 166-178). Briefly, the intestine was opened and pinned flat, mucosal side up, in an organ bath. […] Action potentials were analyzed using the Spike 2 […] function and discriminated as single units on the basis of distinguishable waveform, amplitude and duration. […]

[2] = tested on: PKC and cAMP; experiment: FRET assays of PKC and cAMP in HEK293 cells; assay type: cell-based
Procedure: I-343, but not SCH530348, inhibited trypsin stimulation of PKC and cAMP, which thus depend on PAR2 (FIGS. 19G and H). […] The sustained plasma membrane cAMP response to trypsin support the existence of mechanisms that allow persistent PAR2 signaling, which warrant further investigation.
HEK293 cells were cultured in DMEM supplemented with 10% (v/v) FBS (5% CO2, 37° C.). When necessary serum restriction was achieved by replacing culture medium with DMEM containing 0.5% FBS overnight. Cells were transiently transfected using polyethylenimine (PEI) (1:6 DNA:PEI).
HEK293 cells were transiently transfected in 10 cm dishes (˜50% confluency) with Flag-PAR2-HA (2.5 μg) and FRET biosensors CytoEKAR or NucEKAR (2.5 μg) (Jensen, D. D. et al., Sci Transl Med. 2017, 9(392), eaal3447; Thomsen, A. R. B., et al., Cell 2016, 166(4): 907-919). In experiments examining the role of dynamin, cells were transfected with FLAG-PAR2-HA (1.25 μg), FRET biosensor (1.25 μg) and either DynWT-HA, DynK44E-HA or pcDNA3.1 (2.5 μg). At 24 h after transfection, cells were seeded on ViewPlate-96 well plates (PerkinElmer). FRET was assessed 72 h post-transfection, following overnight serum restriction. Cells were equilibrated in HBSS-HEPES (30 min, 37° C.). FRET was measured using a PHERAstar FSX Microplate Reader (BMG LabTech). For CFP/YFP emission ratio analysis, cells were sequentially excited using a CFP filter (425/10 nm) with emission measured using YFP (550/50 nm) and CFP (490/20 nm) filters. FRET was measured before and after stimulation with trypsin (10 nM), NE (100 nM), CS (100 nM), phorbol 12,13-dibutyrate, PDBu (positive control, 1 μM), or vehicle. FRET ratios (donor/acceptor intensity for EKAR, or acceptor/donor intensity for CKAR and Epac) were calculated and corrected to baseline and vehicle treatments to determine ligand-induced FRET (ΔFRET). Treatment effects were determined by comparison of area under the curve values. Signalling inhibitors were dissolved in HBSS-HEPES. PS2 and PS2 inact were dissolved in HBSS-HEPES+1% DMSO. […]

Compound | further amplification of responses compared to basal, CVH mice [1] [%] | PKC activation and cAMP generation at the plasma membrane and in the cytosol ([2]; trypsin 10 nM) | trypsin stimulation of PKC and cAMP ([2]; HEK293 cells)
trypsin | 16.4±7.9 | rapid and sustained activation | 
NE: protease (elastase) activating PAR2 by biased mechanisms | 30.6±9.0 |  | 
Cc1nc(C(=O)N2CCN(C(=O)c3cn4nc(-c5ccc(F)cc5)cc(C(C)(C)C)c4n3)C(C)(C)C2)n[nH]1 [Compound I-343, (8-(tert-butyl)-6-(4-fluorophenyl)imidazo[1,2-b]pyridazin-2-yl)(2,2-dimethyl-4-(5-methyl-1H-1,2,4-triazole-3-carbonyl)piperazin-1-yl)methanone] |  |  | inhibited

From patent US20200383985A1, “Inhibitors of Protease Activated Receptor-2” (Endosome Therapeutics, Inc., priority 2017, published 2020)
